#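 In this assay, cells in 96-well plates receive the compound at five concentrations for 48 hours. Endpoints are linearly interpolated between the surrounding concentrations. At the GI50, growth is halved. TGI denotes the concentration required for complete inhibition of growth.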
# How the values were obtained:
# Test in all cases: DTP human tumour cell line panel, 48 h
# MDA-MB-231 breast = tested on: MDA-MB-231 breast
# BT-549 breast = tested on: BT-549 breast
# NCI-H226 lung = tested on: NCI-H226 lung
# HOP-92 NSCLC = tested on: HOP-92 NSCLC
# EKVX NSCLC = tested on: EKVX NSCLC
# MCF7 breast = tested on: MCF7 breast
# HCT-15 colon = tested on: HCT-15 colon
# OVCAR-5 ovarian = tested on: OVCAR-5 ovarian
# SNB-19 CNS = tested on: SNB-19 CNS
# NCI/ADR-RES ovarian = tested on: NCI/ADR-RES ovarian
# 786-0 renal = tested on: 786-0 renal
# SK-MEL-2 melanoma = tested on: SK-MEL-2 melanoma
# SR leukemia = tested on: SR leukemia
# IGROV1 ovarian = tested on: IGROV1 ovarian
# NCI-H460 lung = tested on: NCI-H460 lung
# SN12C renal = tested on: SN12C renal
# RPMI-8226 leukemia = tested on: RPMI-8226 leukemia
# CAKI-1 renal = tested on: CAKI-1 renal
# SK-OV-3 ovarian = tested on: SK-OV-3 ovarian
# LOX IMVI melanoma = tested on: LOX IMVI melanoma
# SNB-75 CNS = tested on: SNB-75 CNS
# M14 melanoma = tested on: M14 melanoma
# T-47D breast = tested on: T-47D breast
# UO-31 renal = tested on: UO-31 renal
# MALME-3M melanoma = tested on: MALME-3M melanoma
# OVCAR-3 ovarian = tested on: OVCAR-3 ovarian
# CCRF-CEM leukemia = tested on: CCRF-CEM leukemia
# PC-3 prostate = tested on: PC-3 prostate
# UACC-62 melanoma = tested on: UACC-62 melanoma
# HT29 colon = tested on: HT29 colon
# KM12 colon = tested on: KM12 colon
# ACHN renal = tested on: ACHN renal
# HOP-62 NSCLC = tested on: HOP-62 NSCLC
# SF-295 CNS = tested on: SF-295 CNS
# SK-MEL-5 melanoma = tested on: SK-MEL-5 melanoma
# K-562 leukemia = tested on: K-562 leukemia
# HCC-2998 colon = tested on: HCC-2998 colon
# U251 CNS = tested on: U251 CNS
# COLO 205 colon = tested on: COLO 205 colon
# NCI-H23 lung = tested on: NCI-H23 lung
# DU-145 prostate = tested on: DU-145 prostate
# A498 renal = tested on: A498 renal
# UACC-257 melanoma = tested on: UACC-257 melanoma
# RXF 393 renal = tested on: RXF 393 renal
# NCI-H522 lung = tested on: NCI-H522 lung
# OVCAR-4 ovarian = tested on: OVCAR-4 ovarian
# OVCAR-8 ovarian = tested on: OVCAR-8 ovarian
# SF-268 CNS = tested on: SF-268 CNS
# SW-620 colon = tested on: SW-620 colon
# SF-539 CNS = tested on: SF-539 CNS
# TK-10 renal = tested on: TK-10 renal
# SK-MEL-28 melanoma = tested on: SK-MEL-28 melanoma
# MDA-MB-435 = tested on: MDA-MB-435
# HS 578T breast = tested on: HS 578T breast
# A549 NSCLC = tested on: A549 NSCLC
# MOLT-4 leukemia = tested on: MOLT-4 leukemia
# HCT-116 colon = tested on: HCT-116 colon
smiles,measurement,setting,value
CCC(=O)OCC1OC(n2cnc3c(=S)nc(N)[nH]c32)C(OC(=O)CC)C1OC(=O)CC (centres undefined),GI50,MDA-MB-231 breast,5.44 µM
same,TGI,MDA-MB-231 breast,> 100 µM
same,GI50,BT-549 breast,5.42 µM
same,TGI,BT-549 breast,> 100 µM
same,GI50,NCI-H226 lung,2.62 µM
same,TGI,NCI-H226 lung,> 100 µM
same,GI50,HOP-92 NSCLC,0.892 µM
same,TGI,HOP-92 NSCLC,20.9 µM
same,GI50,EKVX NSCLC,10.7 µM
same,TGI,EKVX NSCLC,> 100 µM
same,GI50,MCF7 breast,3.57 µM
same,TGI,MCF7 breast,41.7 µM
same,GI50,HCT-15 colon,9.39 µM
same,TGI,HCT-15 colon,> 100 µM
same,GI50,OVCAR-5 ovarian,9.15 µM
same,TGI,OVCAR-5 ovarian,> 100 µM
same,GI50,SNB-19 CNS,80.9 µM
same,TGI,SNB-19 CNS,> 100 µM
same,GI50,NCI/ADR-RES ovarian,14.8 µM
same,TGI,NCI/ADR-RES ovarian,> 100 µM
same,GI50,786-0 renal,8.09 µM
same,TGI,786-0 renal,> 100 µM
same,GI50,SK-MEL-2 melanoma,2.89 µM
same,TGI,SK-MEL-2 melanoma,46.4 µM
same,GI50,SR leukemia,0.828 µM
same,TGI,SR leukemia,> 100 µM
same,GI50,IGROV1 ovarian,7.49 µM
same,TGI,IGROV1 ovarian,44.5 µM
same,GI50,NCI-H460 lung,6.62 µM
same,TGI,NCI-H460 lung,> 100 µM
same,GI50,SN12C renal,12.4 µM
same,TGI,SN12C renal,> 100 µM
same,GI50,RPMI-8226 leukemia,3.79 µM
same,TGI,RPMI-8226 leukemia,67.2 µM
same,GI50,CAKI-1 renal,3.52 µM
same,TGI,CAKI-1 renal,> 100 µM
same,GI50,SK-OV-3 ovarian,2.36 µM
same,TGI,SK-OV-3 ovarian,14.5 µM
same,GI50,LOX IMVI melanoma,2.17 µM
same,TGI,LOX IMVI melanoma,> 100 µM
same,GI50,SNB-75 CNS,3 µM
same,TGI,SNB-75 CNS,88.9 µM
same,GI50,M14 melanoma,2.33 µM
same,TGI,M14 melanoma,24.6 µM
same,GI50,T-47D breast,3.17 µM
same,TGI,T-47D breast,43.8 µM
same,GI50,UO-31 renal,1.97 µM
same,TGI,UO-31 renal,54.2 µM
same,GI50,MALME-3M melanoma,2.45 µM
same,TGI,MALME-3M melanoma,> 100 µM
same,GI50,OVCAR-3 ovarian,3.03 µM
same,TGI,OVCAR-3 ovarian,17.7 µM
same,GI50,CCRF-CEM leukemia,2.12 µM
same,TGI,CCRF-CEM leukemia,28.2 µM
same,GI50,PC-3 prostate,5.2 µM
same,TGI,PC-3 prostate,> 100 µM
same,GI50,UACC-62 melanoma,2.29 µM
same,TGI,UACC-62 melanoma,14.4 µM
same,GI50,HT29 colon,14.7 µM
same,TGI,HT29 colon,> 100 µM
same,GI50,KM12 colon,6.06 µM
same,TGI,KM12 colon,44.4 µM
same,GI50,ACHN renal,5.28 µM
same,TGI,ACHN renal,93.1 µM
same,GI50,HOP-62 NSCLC,2.71 µM
same,TGI,HOP-62 NSCLC,67.3 µM
same,GI50,SF-295 CNS,5.27 µM
same,TGI,SF-295 CNS,> 100 µM
same,GI50,SK-MEL-5 melanoma,13.9 µM
same,TGI,SK-MEL-5 melanoma,34 µM
same,GI50,K-562 leukemia,6.69 µM
same,TGI,K-562 leukemia,> 100 µM
same,GI50,HCC-2998 colon,15.2 µM
same,TGI,HCC-2998 colon,73.1 µM
same,GI50,U251 CNS,21.5 µM
same,TGI,U251 CNS,> 100 µM
same,GI50,COLO 205 colon,3.57 µM
same,TGI,COLO 205 colon,18.4 µM
same,GI50,NCI-H23 lung,9.73 µM
same,TGI,NCI-H23 lung,> 100 µM
same,GI50,DU-145 prostate,2.51 µM
same,TGI,DU-145 prostate,47.7 µM
same,GI50,A498 renal,15.6 µM
same,TGI,A498 renal,> 100 µM
same,GI50,UACC-257 melanoma,35.4 µM
same,TGI,UACC-257 melanoma,> 100 µM
same,GI50,RXF 393 renal,6.06 µM
same,TGI,RXF 393 renal,> 100 µM
same,GI50,NCI-H522 lung,2.89 µM
same,TGI,NCI-H522 lung,18.6 µM
same,GI50,OVCAR-4 ovarian,4.95 µM
same,TGI,OVCAR-4 ovarian,81.3 µM
same,GI50,OVCAR-8 ovarian,7.1 µM
same,TGI,OVCAR-8 ovarian,> 100 µM
same,GI50,SF-268 CNS,3.95 µM
same,TGI,SF-268 CNS,> 100 µM
same,GI50,SW-620 colon,16.3 µM
same,TGI,SW-620 colon,> 100 µM
same,GI50,SF-539 CNS,4.88 µM
same,TGI,SF-539 CNS,52.1 µM
same,GI50,TK-10 renal,3.63 µM
same,TGI,TK-10 renal,> 100 µM
same,GI50,SK-MEL-28 melanoma,37.5 µM
same,TGI,SK-MEL-28 melanoma,> 100 µM
same,GI50,MDA-MB-435,4.73 µM
same,TGI,MDA-MB-435,> 100 µM
same,GI50,HS 578T breast,23.8 µM
same,TGI,HS 578T breast,> 100 µM
same,GI50,A549 NSCLC,71.8 µM
same,TGI,A549 NSCLC,> 100 µM
same,GI50,MOLT-4 leukemia,5.31 µM
same,TGI,MOLT-4 leukemia,> 100 µM
same,GI50,HCT-116 colon,4.25 µM
same,TGI,HCT-116 colon,> 100 µM
